Experimental data reported in US20250346602A1, “LACTAM SUBSTITUTED IMIDAZOPYRIDAZINE IL-17A MODULATORS AND USES THEREOF” (DICE ALPHA, INC., priority 2022, published 2025).

Each molecule was assayed against T1, IL-17A/A (Homo sapiens, UniProt Q16552) (assay: IL-17A/A HEK-Blue cell assay). Conditions: HEK-Blue IL-17A reporter cell line (HEK 293), IL-17A/A stimulation, 20 hours incubation, SEAP read at A630.
T1 construct: purchased Genscript Z03228
T1 sequence (Q16552 24-155): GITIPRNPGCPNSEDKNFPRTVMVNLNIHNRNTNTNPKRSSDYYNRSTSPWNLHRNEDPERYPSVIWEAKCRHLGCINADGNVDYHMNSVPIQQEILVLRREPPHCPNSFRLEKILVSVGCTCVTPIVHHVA
Assay type: cell-based
In short: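 IC50 came from a 4-parameter fit of SEAP read at A630 (Quanti-Blue). Compound was titrated to a top final concentration of 10, 1 or 0.3 uM with 0.1% final DMSO and added just before IL-17A/A. Incubation lasted 20 hours in HEK293 cells engineered with IL-17RA, IL-17RC, Act1 and an NFκB-SEAP reporter.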

Structure (SMILES)	IC50 [nM]
CCc1nonc1C(=O)N[C@H](c1cn2nc(CC3C[C@@H](C(F)(F)F)CNC3=O)ccc2n1)C1CCC(F)(F)CC1 (stereo partly drawn) [Compound 112, N-((1S)-(4,4-difluorocyclohexyl)(6-(((5R)-2-oxo-5-(trifluoromethyl)piperidin-3-yl)methyl)imidazo[1,2-b]pyridazin-2-yl)methyl)-4-ethyl-1,2,5-oxadiazole-3-carboxamide]	100 to 1000
CCn1nccc1C(=O)N[C@H](c1cn2nc(CC3C[C@@H](C(F)(F)F)NC3=O)ccc2n1)C1CCC(F)(F)CC1 (stereo partly drawn) [Compound 7, N-((1S)-(4,4-difluorocyclohexyl)(6-(((5S)-2-oxo-5-(trifluoromethyl)pyrrolidin-3-yl)methyl)imidazo[1,2-b]pyridazin-2-yl)methyl)-1-ethyl-1H-pyrazole-5-carboxamide]	100 to 1000
CCn1nccc1C(=O)N[C@H](c1cn2nc(CC3CC(CC(F)(F)F)CNC3=O)ccc2n1)C1CCC(F)(F)CC1 (single isomer, unassigned) [Compound 66]	100 to 1000
CCn1nccc1C(=O)N[C@H](c1cn2nc(CC3C[C@H](C(F)(F)F)NC3=O)ccc2n1)C1CCC(F)(F)CC1 (single isomer, unassigned) [Compound 23]	> 1000
CCn1nccc1C(=O)N[C@H](c1cn2nc(CC3CC(F)(F)CNC3=O)c(NC(=O)OC)cc2n1)C1CCC(F)(F)CC1 (stereo partly drawn) [Compound 72, methyl (6-((5,5-difluoro-2-oxopiperidin-3-yl)methyl)-2-((S)-(4,4-difluorocyclohexyl)(1-ethyl-1H-pyrazole-5-carboxamido)methyl)imidazo[1,2-b]pyridazin-7-yl)carbamate]	100 to 1000
CCn1nccc1C(=O)N[C@H](c1cn2nc(CC3C[C@@H](C(F)(F)F)CNC3=O)c(N(C)C3CC3)cc2n1)C1CCC(F)(F)CC1 (single isomer, unassigned) [Compound 90]	100 to 1000
CCn1nccc1C(=O)N[C@H](c1cn2nc(CC3C[C@@H](C(F)(F)F)CNC3=O)ccc2n1)C1CCCCC1 (stereo partly drawn) [Compound 191, N-((1S)-cyclohexyl(6-(((5R)-2-oxo-5-(trifluoromethyl)piperidin-3-yl)methyl)imidazo[1,2-b]pyridazin-2-yl)methyl)-1-ethyl-1H-pyrazole-5-carboxamide]	100 to 1000
CCn1nccc1C(=O)N[C@H](c1cn2nc(CC3CC(F)(F)CNC3=O)ccc2n1)C1CCC(F)(F)CC1 (single isomer, unassigned) [Compound 25]	100 to 1000
CCn1nccc1C(=O)N[C@H](c1cn2nc(CC3C[C@@H](C(F)(F)F)CNC3=O)c(S(C)(=O)=O)cc2n1)C1CCC(F)(F)CC1 (stereo partly drawn) [Compound 184, N-((1S)-(4,4-difluorocyclohexyl)(7-(methylsulfonyl)-6-(((5R)-2-oxo-5-(trifluoromethyl)piperidin-3-yl)methyl)imidazo[1,2-b]pyridazin-2-yl)methyl)-1-ethyl-1H-pyrazole-5-carboxamide]	100 to 1000
CCn1nccc1C(=O)N[C@H](c1cn2nc(C[C@H]3CCCNC3=O)ccc2n1)C(C1CC1)C1CC1 (single isomer, unassigned) [Compound 34]	> 1000
CCn1nccc1C(=O)NC(c1cn2nc(CC3CC(F)(F)CNC3=O)ccc2n1)C1CCC(C)CC1 (single isomer, unassigned) [Compound 27]	100 to 1000
CCn1nccc1C(=O)N[C@H](c1cn2nc(CC3C[C@H](C(F)(F)F)CNC3=O)ccc2n1)C1CCC(F)(F)CC1 (stereo partly drawn) [Compound 152, N-((1S)-(4,4-difluorocyclohexyl)(6-(((5S)-2-oxo-5-(trifluoromethyl)piperidin-3-yl)methyl)imidazo[1,2-b]pyridazin-2-yl)methyl)-1-ethyl-1H-pyrazole-5-carboxamide]	100 to 1000
CCn1nccc1C(=O)N[C@H](c1cn2nc(CC3C[C@@H](C(F)(F)F)CNC3=O)ccc2n1)C1CC(C2CC2)(C2CC2)C1 (stereo partly drawn) [Compound 172, N-((1S)-(3,3-dicyclopropylcyclobutyl)(6-(((5R)-2-oxo-5-(trifluoromethyl)piperidin-3-yl)methyl)imidazo[1,2-b]pyridazin-2-yl)methyl)-1-ethyl-1H-pyrazole-5-carboxamide]	> 1000
O=C(N[C@H](c1cn2nc(CC3C[C@H](C(F)(F)F)CNC3=O)ccc2n1)[C@@H]1CCCC(F)(F)C1)c1conc1C1CC1 (stereo partly drawn) [Compound 158, 3-cyclopropyl-N-((1S)—((R)-3,3-difluorocyclohexyl)(6-(((5S)-2-oxo-5-(trifluoromethyl)piperidin-3-yl)methyl)imidazo[1,2-b]pyridazin-2-yl)methyl)isoxazole-4-carboxamide]	100 to 1000
O=C(N[C@H](c1cn2nc(CC3C[C@@H](C(F)(F)F)CNC3=O)ccc2n1)C1CCC(F)(F)CC1)c1ccnn1CC(F)(F)F (stereo partly drawn) [Compound 105, N-((1S)-(4,4-difluorocyclohexyl)(6-(((5R)-2-oxo-5-(trifluoromethyl)piperidin-3-yl)methyl)imidazo[1,2-b]pyridazin-2-yl)methyl)-1-(2,2,2-trifluoroethyl)-1H-pyrazole-5-carboxamide]	100 to 1000

The next lines start with the values.

IC50 [nM]	Structure (SMILES)
100 to 1000	O=C(N[C@H](c1cn2nc(CC3C[C@@H](C(F)(F)F)CNC3=O)ccc2n1)C1CCC(F)(F)CC1)c1nonc1CC(F)(F)F (stereo partly drawn) [Compound 116, N-((1S)-(4,4-difluorocyclohexyl)(6-(((5R)-2-oxo-5-(trifluoromethyl)piperidin-3-yl)methyl)imidazo[1,2-b]pyridazin-2-yl)methyl)-4-(2,2,2-trifluoroethyl)-1,2,5-oxadiazole-3-carboxamide]
< 100	O=C(N[C@H](c1cn2nc(CC3C[C@@H](C(F)(F)F)CNC3=O)ccc2n1)C1CCC(F)(F)CC1)c1conc1C1CC1(F)F (single isomer, unassigned) [Compound 126]
< 100	CC(C)n1nccc1C(=O)N[C@H](c1cn2nc(CC3C[C@@H](C(F)(F)F)CNC3=O)ccc2n1)[C@@H]1CCCC(F)(F)C1 (stereo partly drawn) [Compound 149, N-((1S)—((R)-3,3-difluorocyclohexyl)(6-(((5R)-2-oxo-5-(trifluoromethyl)piperidin-3-yl)methyl)imidazo[1,2-b]pyridazin-2-yl)methyl)-1-isopropyl-1H-pyrazole-5-carboxamide]
100 to 1000	CCn1nccc1C(=O)N[C@H](c1cn2nc(CC3CC(C4CC4)CNC3=O)ccc2n1)C1CCC(F)(F)CC1 (single isomer, unassigned) [Compound 70]
< 100	CCn1nccc1C(=O)N[C@H](c1cn2nc(CC3C[C@@H](C(F)(F)F)CNC3=O)c(N(C)C3CCOCC3)cc2n1)C1CCC(F)(F)CC1 (single isomer, unassigned) [Compound 94]
< 100	CC[C@@H](c1ccc(F)cc1)[C@H](NC(=O)c1ccnn1CC)c1cn2ncc(CC3C[C@@H](C(F)(F)F)NC3=O)cc2n1 (single isomer, unassigned) [Compound 218]
< 100	CC(C)c1nocc1C(=O)N[C@H](c1cn2nc(CC3C[C@@H](C(F)(F)F)CNC3=O)ccc2n1)C1CCC(F)(F)CC1 (stereo partly drawn) [Compound 102, N-((1S)-(4,4-difluorocyclohexyl)(6-(((5R)-2-oxo-5-(trifluoromethyl)piperidin-3-yl)methyl)imidazo[1,2-b]pyridazin-2-yl)methyl)-3-isopropylisoxazole-4-carboxamide]
< 100	O=C(N[C@H](c1cn2nc(CC3C[C@@H](C(F)(F)F)CNC3=O)ccc2n1)C1CCC(F)(F)CC1)c1nonc1C1CC1 (stereo partly drawn) [Compound 104, 4-cyclopropyl-N-((1S)-(4,4-difluorocyclohexyl)(6-(((5R)-2-oxo-5-(trifluoromethyl)piperidin-3-yl)methyl)imidazo[1,2-b]pyridazin-2-yl)methyl)-1,2,5-oxadiazole-3-carboxamide]
